The source of these data is US8324264B1, “Inhibitors of bacterial biofilms and related methods” (Sequoia Sciences, Inc., priority 2011, dated 2012).

Structures can show the parent of a compound that is named as a salt. Where only a bound is given, the exact number is not on record here.

The first data set relates to E. coli biofilms. The data set can be described thus: Biofilm growth assay (spreading biofilm on semi-solid agar), E. coli. The class given is cell-based. Conditions: biofilm growth assay, overnight 37° C., vs negative controls; Tables 1-5. The method, boiled down:
(§1)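 Values are compound concentrations (μg/ml) that cut the spreading-biofilm zone area by ≥85% relative to negative controls after overnight 37 °C growth from 5 μL central inoculum. E. coli plates: LB, 0.6% agar, 0.5% glucose; P. aeruginosa plates: M8 agar plus 0.2% glucose, 100 μM CaCl2, 1 mM MgSO4, 0.5% Casamino acids.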
With `CC1(C)CC[C@]2(C(=O)O)CC[C@]3(C)C(=C(c4ccoc4CN4CCCC4)CC4[C@@]5(C)Cc6c(n[nH]c6N)C(C)(C)C5CC[C@]43C)C2C1` (stereo partly drawn) [Example 37, (4aS,6aS,6bR,13aR)-12-Amino-2,2,6a,6b,9,9,13a-heptamethyl-15-(2-(pyrrolidin-1-ylmethyl)furan-3-yl)-2,3,4,4a,5,6,6a,6b,7,8,8a,9,11,13,13a,13b,14,15b-octadecahydro-1H-chryseno[1,2-f]indazole-4-a-carboxylic acid], the “E. coli: concentration that reduces the area of the spreading biofilm by greater than or equal to 85%” value worked out at 1 µg/mL.

A further data set relates to P. aeruginosa biofilms. Put plainly: Biofilm growth assay (spreading biofilm on semi-solid agar), P. aeruginosa. The class given is cell-based. The conditions noted are these: biofilm growth assay, overnight 37° C., vs negative controls; Tables 1-5. In a few lines:
as §1
As for `CC1(C)CC[C@]2(C(=O)O)CC[C@]3(C)C(=C(c4ccoc4CN4CCCC4)CC4[C@@]5(C)Cc6c(n[nH]c6N)C(C)(C)C5CC[C@]43C)C2C1` (stereo partly drawn) [Example 37, (4aS,6aS,6bR,13aR)-12-Amino-2,2,6a,6b,9,9,13a-heptamethyl-15-(2-(pyrrolidin-1-ylmethyl)furan-3-yl)-2,3,4,4a,5,6,6a,6b,7,8,8a,9,11,13,13a,13b,14,15b-octadecahydro-1H-chryseno[1,2-f]indazole-4-a-carboxylic acid], the “P. aeruginosa: concentration that reduces the area of the spreading biofilm by greater than or equal to 85%” value is greater than 1 µg/mL.

System in another data set: not given
Assay: not given
Conditions: not given
As a reminder, the melting point is the temperature, or range, at which the solid turns liquid. As to `CC1(C)CC[C@]2(C(=O)O)CC[C@]3(C)C(=C(c4ccccc4N)CC4[C@@]5(C)Cc6c(n[nH]c6N)C(C)(C)C5CC[C@]43C)C2C1` (stereo partly drawn) (as salt: ammonium) [Example 23, (4aS,6aS,6bR,13aR)-12-Amino-15-(2-aminophenyl)-2,2,6a,6b,9,9,13a-heptamethyl-2,3,4,4a,5,6,6a,6b,7,8,8a,9,11,13,13a,13b,14,15b-octadecahydro-1H-chryseno[1,2-f]indazole-4-a-carboxylic acid], the melting point is 210 to 230 °C (dec.).

For the compound `CCC1=C2[C@@H]3CC(C)(C)CC[C@]3(C(=O)O)CC[C@@]2(C)[C@]2(C)CC[C@H]3C(C)(C)c4n[nH]c(N)c4C[C@]3(C)C2C1` (stereo partly drawn) (as salt: ammonium) [Example 14, (4aS,6aS,6bR,8aR,13aR,15bS)-12-Amino-15-ethyl-2,2,6a,6b,9,9,13a-heptamethyl-2,3,4,4a,5,6,6a,6b,7,8,8a,9,11,13,13a,13b,14,15b-octadecahydro-1H-chryseno[1,2-f]indazole-4-a-carboxylic acid], the melting point is greater than 300 °C.

`CN(C)c1ccc(C2=C3[C@@H]4CC(C)(C)CC[C@]4(C(=O)O)CC[C@@]3(C)[C@]3(C)CC[C@H]4C(C)(C)c5n[nH]c(N)c5C[C@]4(C)C3C2)cc1` (stereo partly drawn) (as salt: ammonium) [Example 10, (4aS,6aS,6bR,13aR)-12-Amino-15-(4-(dimethylamino)phenyl)-2,2,6a,6b,9,9,13a-heptamethyl-2,3,4,4a,5,6,6a,6b,7,8,8a,9,11,13,13a,13b,14,15b-octadecahydro-1H-chryseno[1,2-f]indazole-4-a-carboxylic acid]: the melting point was greater than 300 °C.

Regarding `Cc1nnc(S)n1NC(=O)[C@]12CCC(C)(C)CC1C1=CCC3[C@@]4(C)Cc5c(n[nH]c5N)C(C)(C)C4CC[C@@]3(C)[C@]1(C)CC2` (stereo partly drawn) (as salt: ammonium) [Compound 77, (4aS,6aS,6bR,13aR)-12-Amino-N-(3-mercapto-5-methyl-4H-1,2,4-triazol-4-yl)-2,2,6a,6b,9,9,13a-heptamethyl-2,3,4,4a,5,6,6a,6b,7,8,8a,9,11,13,13a,13b,14,15b-octadecahydro-1H-chryseno[1,2-f]indazole-4-a-carboxamide], the melting point was 250 to 270 °C (dec.).

For `CC1=C2[C@@H]3CC(C)(C)CC[C@]3(C(=O)O)CC[C@@]2(C)[C@]2(C)CC[C@H]3C(C)(C)c4n[nH]c(N)c4C[C@]3(C)C2C1` (stereo partly drawn) (as salt: ammonium) [Example 4, (4aS,6aS,6bR,8aR,13aR,15bS)-12-Amino-2,2,6a,6b,9,9,13a,15-octamethyl-2,3,4,4a,5,6,6a,6b,7,8,8a,9,11,13,13a,13b,14,15b-octadecahydro-1H-chryseno[1,2-f]indazole-4-a-carboxylic acid], the melting point was greater than 300 °C.

Take `CC1(C)CC[C@]2(C(=O)O)CC[C@]3(C)C(=C(c4ccco4)CC4[C@@]5(C)Cc6c(n[nH]c6N)C(C)(C)[C@@H]5CC[C@]43C)[C@@H]2C1` (stereo partly drawn) (as salt: ammonium) [Example 7, (4aS,6aS,6bR,13aR)-12-Amino-15-(furan-2-yl)-2,2,6a,6b,9,9,13a-heptamethyl-2,3,4,4a,5,6,6a,6b,7,8,8a,9,11,13,13a,13b,14,15b-octadecahydro-1H-chryseno[1,2-f]indazole-4-a-carboxylic acid]: the melting point is 250 to 270 °C (dec.).

As to `CC1(C)CC[C@]2(C(=O)Nc3nnc(N)s3)CC[C@]3(C)C(=CCC4[C@@]5(C)Cc6c(n[nH]c6N)C(C)(C)C5CC[C@]43C)C2C1` (stereo partly drawn) (as salt: ammonium) [Compound 71, (4aS,6aS,6bR,13aR)-12-Amino-N-(5-amino-1,3,4-thiadiazol-2-yl)-2,2,6a,6b,9,9,13a-heptamethyl-2,3,4,4a,5,6,6a,6b,7,8,8a,9,11,13,13a,13b,14,15b-octadecahydro-1H-chryseno[1,2-f]indazole-4-a-carboxamide], the melting point is 280 to 300 °C (dec.).

For the compound `CC1(C)CC[C@]2(C(=O)Nc3cc(O)[nH]n3)CC[C@]3(C)C(=CCC4[C@@]5(C)Cc6c(n[nH]c6N)C(C)(C)C5CC[C@]43C)C2C1` (stereo partly drawn) (as salt: ammonium) [Compound 66, (4aS,6aS,6bR,13aR)-12-Amino-N-(5-hydroxy-1H-pyrazol-3-yl)-2,2,6a,6b,9,9,13a-heptamethyl-2,3,4,4a,5,6,6a,6b,7,8,8a,9,11,13,13a,13b,14,15b-octadecahydro-1H-chryseno[1,2-f]indazole-4-a-carboxamide], the melting point is 275 to 295 °C (dec.).

For `CC1(C)CC[C@]2(c3n[nH]c(O)c3CCN)CC[C@]3(C)C(=CCC4[C@@]5(C)Cc6c(n[nH]c6N)C(C)(C)[C@@H]5CC[C@]43C)[C@@H]2C1` (stereo partly drawn) (as salt: ammonium) [Compound 84, 3-((4aS,6aS,6bR,13aR)-12-Amino-2,2,6a,6b,9,9,13a-heptamethyl-2,3,4,4a,5,6,6a,6b,7,8,8a,9,11,13,13a,13b,14,15b-octadecahydro-1H-chryseno[1,2-f]indazol-4-a-yl)-4-(2-aminoethyl)-1H-pyrazol-5-ol], the melting point is 250 to 260 °C (dec.).

Take `CC1(C)CC[C@]2(C(=O)O)CC[C@]3(C)C(=C(c4cccc(O)c4)CC4[C@@]5(C)Cc6c(n[nH]c6N)C(C)(C)C5CC[C@]43C)C2C1` (stereo partly drawn) (as salt: ammonium) [Example 16, (4aS,6aS,6bR,13aR)-12-Amino-15-(3-hydroxyphenyl)-2,2,6a,6b,9,9,13a-heptamethyl-2,3,4,4a,5,6,6a,6b,7,8,8a,9,11,13,13a,13b,14,15b-octadecahydro-1H-chryseno[1,2-f]indazole-4-a-carboxylic acid]: the melting point is 260 to 280 °C (dec.).

With `CC1(C)CC[C@]2(C(=O)n3cnc(S)n3)CC[C@]3(C)C(=CCC4[C@@]5(C)Cc6c(n[nH]c6N)C(C)(C)C5CC[C@]43C)C2C1` (stereo partly drawn) (as salt: ammonium) [Compound 76, ((4aS,6aS,6bR,13aR)-12-Amino-2,2,6a,6b,9,9,13a-heptamethyl-2,3,4,4a,5,6,6a,6b,7,8,8a,9,11,13,13a,13b,14,15b-octadecahydro-1H-chryseno[1,2-f]indazol-4-a-yl)(3-mercapto-1H-1,2,4-triazol-1-yl)methanone], the melting point was 260 to 280 °C (dec.).

Consider `CC1(C)CC[C@]2(c3n[nH]c(O)c3N3CCOCC3)CC[C@]3(C)C(=CCC4[C@@]5(C)Cc6c(n[nH]c6N)C(C)(C)[C@@H]5CC[C@]43C)[C@@H]2C1` (stereo partly drawn) (as salt: ammonium) [Compound 88, 3-((4aS,6aS,6bR,13aR)-12-Amino-2,2,6a,6b,9,9,13a-heptamethyl-2,3,4,4a,5,6,6a,6b,7,8,8a,9,11,13,13a,13b,14,15b-octadecahydro-1H-chryseno[1,2-f]indazol-4-a-yl)-4-morpholino-1H-pyrazol-5-ol], for which the melting point was greater than 300 °C.

As to `C[C@@H]1c2n[nH]c(N)c2C[C@]2(C)C3CC=C4[C@@H]5CC(C)(C)CC[C@]5(C(=O)O)CC[C@@]4(C)[C@]3(C)CC[C@@H]12` (stereo partly drawn) (as salt: ammonium) [Example 3, (4aS,6aS,6bR,8aS,9S,13aS,15bS)-12-Amino-2,2,6a,6b,9,13a-hexamethyl-2,3,4,4a,5,6,6a,6b,7,8,8a,9,11,13,13a,13b,14,15b-octadecahydro-1H-chryseno[1,2-f]indazole-4-a-carboxylic acid], the melting point was greater than 300 °C.

`CC1(C)CC[C@]2(C(=O)O)CC[C@]3(C)C(=C(c4ccc5c(c4)CCN5)CC4[C@@]5(C)Cc6c(n[nH]c6N)C(C)(C)[C@@H]5CC[C@]43C)[C@@H]2C1` (stereo partly drawn) (as salt: ammonium) [Example 11, (4aS,6aS,6bR,13aR)-12-Amino-15-(indolin-5-yl)-2,2,6a,6b,9,9,13a-heptamethyl-2,3,4,4a,5,6,6a,6b,7,8,8a,9,11,13,13a,13b,14,15b-octadecahydro-1H-chryseno[1,2-f]indazole-4-a-carboxylic acid]: the melting point was 170 to 190 °C (dec.).

In the case of `CC1(C)CC[C@]2(C(=O)n3ccnc3N)CC[C@]3(C)C(=CCC4[C@@]5(C)Cc6c(n[nH]c6N)C(C)(C)C5CC[C@]43C)C2C1` (stereo partly drawn) (as salt: ammonium) [Compound 73, (2-Amino-1H-imidazol-1-yl)((4aS,6aS,6bR,13aR)-12-amino-2,2,6a,6b,9,9,13a-heptamethyl-2,3,4,4a,5,6,6a,6b,7,8,8a,9,11,13,13a,13b,14,15b-octadecahydro-1H-chryseno[1,2-f]indazol-4-a-yl)methanone], the melting point is 230 to 250 °C (dec.).

`C[C@H]1[C@H](C)CC[C@]2(C(=O)O)CC[C@]3(C)C(=CCC4[C@@]5(C)Cc6c(n[nH]c6N)C(C)(C)[C@@H]5CC[C@]43C)[C@H]12` (stereo partly drawn) (as salt: ammonium) [Example 2, (4aS,6aS,6bR,13aR)-12-Amino-2,2,6a,6b,9,9,13a-heptamethyl-2,3,4,4a,5,6,6a,6b,7,8,8a,9,11,13,13a,13b,14,15b-octadecahydro-1H-chryseno[1,2-f]indazole-4-a-carboxylic acid]: the melting point was 258 to 278 °C.
